Strand notation (5' to 3'): a small letter for the sugar, then the base; units joined by * are phosphorothioate-linked, units joined directly phosphodiester-linked; [ ] holds rarer units or linkages, { } end groups; capitals alone tell only the bases. d = 2'-deoxy (DNA)
Key:
[1] = test system: ELAM-1; test: ELISA of ELAM-1 expression in TNF-stimulated HUVEC; assay type: cell-based, human; conditions: for ELAM-1 expression (% of control) / IC50: HUVEC; for ELAM-1 expression (% of control): TNF-α […] 4 hours; for IC50: TNF-α, read-out: IC50 for inhibition of ELAM-1 expression (asterisk); for inhibition of ELAM-1 expression: TNF-treated HUVEC
Description: (§1) Primary human umbilical vein endothelial (HUVEC) cells, passage 2 to 5, were plated in 96-well plates and allowed to reach confluence. Cells were washed three times with Opti-MEM (GIBCO, Grand Island N.Y.). Cells were treated with increasing concentrations of oligonucleotide diluted in Opti-MEM containing 10 μg/ml DOTMA solution (Bethesda Research Labs, Bethesda, Md.) for 4 hours at 370C. The medium was removed and replaced with EGM-UV (Clonetics, San Diego Calif.) plus oligonucleotide. Tumor necrosis factor α was added to the medium (2.5 ng/ml) and the cells were incubated an additional 4 hours at 37° C.
(§2) ELAM-1 expression was determined by ELISA. Cells were gently washed three times with Dulbecco's phosphate-buffered saline (D-PBS) prewarmed to 37° C. Cells were fixed with 95% ethanol at 4° C. for 20 minutes, washed three times with D-PBS and blocked with 2% BSA in D-PBS. Cells were incubated with ELAM-1 monoclonal antibody BBA-1 (R&D Systems, Minneapolis Minn.) diluted to 0.5 μg/ml in D-PBS containing 2% BSA for 1 hour at 37° C. Cells were washed three times with D-PBS and the bound ELAM-1 antibody detected with biotinylated goat anti-mouse secondary antibody followed by β-galactosidase-conjugated streptavidin as described in Example 1.
ELISA screening of additional antisense oligonucleotides for activity against ELAM-1 gene expression Inhibition of ELAM-1 expression by eighteen antisense phosphorothioate oligonucleotides was determined using the ELISA assay as described in Example 12.

[2] = test system: VCAM-1; test: ELISA of VCAM-1 expression in TNF-stimulated HUVEC; assay type: cell-based, human; conditions: for VCAM-1 EXPRESSION 30 nM oligo (VCAM-1 expression is given as % of control) / VCAM-1 EXPRESSION 50 nM oligo (VCAM-1 expression is given as % of control): TNF-α 16 hours; for IC50: TNF-α, read-out: IC50 for inhibition of VCAM-1 expression (asterisk)
Description: as §1, §2
Inhibition of VCAM-1 expression by fifteen antisense phosphorothioate oligonucleotides was determined using the ELISA assay approximately as described in Example 12, except that cells were stimulated with TNF-àfor 16 hours and VCAM-1 expression was detected by a VCAM-1 specific monoclonal antibody (R & D Systems, Minneapolis, Minn.) used at 0.5 μg/ml.

Substance	ELAM-1 expression (% of control) ([1]; 30 nM oligo)	ELAM-1 expression (% of control) ([1]; 50 nM oligo)	IC50 [1]	inhibition of ELAM-1 expression [1]	VCAM-1 EXPRESSION 30 nM oligo (VCAM-1 expression is given as % of control) [2]	VCAM-1 EXPRESSION 50 nM oligo (VCAM-1 expression is given as % of control) [2]	IC50 [2]
ISIS 2670: P=S, human ELAM-1 3′-UTR 3717-3736, SEQ ID NO 29, ACCACACTGGTATTTCACAC (antisense dA*dC*dC*dA*dC*dA*dC*dT*dG*dG*dT*dA*dT*dT*dT*dC*dA*dC*dA*dC)	72.2 % of control	67.2 % of control					
ISIS 2673: P=S, human ELAM-1 3′-UTR 2656-2676, SEQ ID NO 30, GTATGGAAGATTATAATATAT (antisense dG*dT*dA*dT*dG*dG*dA*dA*dG*dA*dT*dT*dA*dT*dA*dA*dT*dA*dT*dA*dT)	58.9 % of control	53.8 % of control					
ISIS 2674: P=S, human ELAM-1 3′-UTR 2617-2637, SEQ ID NO 31, CACAATCCTTAAGAACTCTTT (antisense dC*dA*dC*dA*dA*dT*dC*dC*dT*dT*dA*dA*dG*dA*dA*dC*dT*dC*dT*dT*dT)	33.5 % of control	28.1 % of control	≤ 0.05 µM				
ISIS 2678: P=S, human ELAM-1 3′-UTR 3557-3576, SEQ ID NO 32, ACCTCTGCTGTTCTGATCCT (antisense dA*dC*dC*dT*dC*dT*dG*dC*dT*dG*dT*dT*dC*dT*dG*dA*dT*dC*dC*dT)	24.9 % of control	15.3 % of control	≤ 0.05 µM				
ISIS 2679: P=S, human ELAM-1 5′-UTR 40-59, SEQ ID NO 33, CTGCTGCCTCTGTCTCAGGT (antisense dC*dT*dG*dC*dT*dG*dC*dC*dT*dC*dT*dG*dT*dC*dT*dC*dA*dG*dG*dT)	6.4 % of control	6.0 % of control	≤ 0.05 µM	most potent			
ISIS 2683: P=S, human ELAM-1 AUG 143-163, SEQ ID NO 35, AATCATGACTTCAAGAGTTCT (antisense dA*dA*dT*dC*dA*dT*dG*dA*dC*dT*dT*dC*dA*dA*dG*dA*dG*dT*dT*dC*dT)	47.9 % of control	48.5 % of control	≤ 0.05 µM				
ISIS 2686: P=S, human ELAM-1 AUG 148-168, SEQ ID NO 36, TGAAGCAATCATGACTTCAAG (antisense dT*dG*dA*dA*dG*dC*dA*dA*dT*dC*dA*dT*dG*dA*dC*dT*dT*dC*dA*dA*dG)	51.1 % of control	46.9 % of control	≤ 0.05 µM				
ISIS 2687: P=S, human ELAM-1 5′-UTR 17-36, SEQ ID NO 37, TATAGGAGTTTTGATGTGAA (antisense dT*dA*dT*dA*dG*dG*dA*dG*dT*dT*dT*dT*dG*dA*dT*dG*dT*dG*dA*dA)	91.1 % of control	73.8 % of control		did not show significant activity			
ISIS 2694: P=S, human ELAM-1 3′-UTR 2933-2953, SEQ ID NO 39, GACAATATACAAACCTTCCAT (antisense dG*dA*dC*dA*dA*dT*dA*dT*dA*dC*dA*dA*dA*dC*dC*dT*dT*dC*dC*dA*dT)	72.0 % of control	64.6 % of control					
ISIS 3791: phosphorothioate, human VCAM-1 5′UTR 38-58, SEQ ID NO 61, CCTGGGAGGGTATTCAGCT (antisense dG*dC*dC*dT*dG*dG*dG*dA*dG*dG*dG*dT*dA*dT*dT*dC*dA*dG*dC*dT)					92.6 % of control	58.0 % of control	
ISIS 3792: phosphorothioate, human VCAM-1 AUG 110-129, SEQ ID NO 63, GGCATTTTAAGTTGCTGTCG (DNA, all phosphorothioate, methylation of C not given here)					68.7 % of control	33.7 % of control	≤ 0.05 µM
ISIS 3794: phosphorothioate, human VCAM-1 TERMIN. 2344-2362, SEQ ID NO 69, TGAACATATCAAGCATTAGC (DNA, all phosphorothioate, methylation of C not given here)					75.3 % of control	52.6 % of control	
ISIS 3800: phosphorothioate, human VCAM-1 3′-UTR 2620-2639, SEQ ID NO 70, GCAATCTTGCTATGGCATAA (DNA, all phosphorothioate, methylation of C not given here)					64.4 % of control	47.7 % of control	≤ 0.05 µM
ISIS 3801: phosphorothioate, human VCAM-1 3′-UTR 2872-2892, SEQ ID NO 50, AACCCAGTGCTCCCTTTGCT (DNA, all phosphorothioate, methylation of C not given here)					36.5 % of control	21.3 % of control	≤ 0.05 µM
ISIS 3805: phosphorothioate, human VCAM-1 3′-UTR 2826-2845, SEQ ID NO 71, CCCGGCATCTTTACAAAACC (DNA, all phosphorothioate, methylation of C not given here)					7.7 % of control	44.9 % of control	≤ 0.05 µM
ISIS 4719: phosphorothioate, human ELAM-1 3′-UTR 2993-3012, SEQ ID NO 58, ACGTTTGGCCTCATGGAAGT (antisense dA*dC*dG*dT*dT*dT*dG*dG*dC*dC*dT*dC*dA*dT*dG*dG*dA*dA*dG*dT)	36.8 % of control	34.7 % of control	≤ 0.05 µM				
ISIS 4720: phosphorothioate, human ELAM-1 3′-UTR 3093-3112, SEQ ID NO 59, GGAATGCAAAGCACATCCAT (antisense dG*dG*dA*dA*dT*dG*dC*dA*dA*dA*dG*dC*dA*dC*dA*dT*dC*dC*dA*dT)	63.5 % of control	70.6 % of control					
ISIS 4729: phosphorothioate, human ELAM-1 3′-UTR 2063-2082, SEQ ID NO 57, GGGCCAGAGACCCGAGGAGA (antisense dG*dG*dG*dC*dC*dA*dG*dA*dG*dA*dC*dC*dC*dG*dA*dG*dG*dA*dG*dA)	49.4 % of control	46.3 % of control	≤ 0.05 µM				
ISIS 4730: phosphorothioate, human ELAM-1 I/E 3′UTR 2006-2025, SEQ ID NO 56, TCCCCAGATGCACCTGTTT (antisense dT*dT*dC*dC*dC*dC*dA*dG*dA*dT*dG*dC*dA*dC*dC*dT*dG*dT*dT*dT)	14.1 % of control	2.3 % of control	≤ 0.05 µM				
ISIS 4732: phosphorothioate, human ELAM-1 Coding 1936-1955, SEQ ID NO 55, CTGATTCAAGGCTTTGGCAG (antisense dC*dT*dG*dA*dT*dT*dC*dA*dA*dG*dG*dC*dT*dT*dT*dG*dG*dC*dA*dG)	68.5 % of control	55.3 % of control					
ISIS 4756: phosphorothioate, human ELAM-1 I/E 177-196, SEQ ID NO 54, CCAAAGTGAGAGCTGAGAGA (antisense dC*dC*dA*dA*dA*dG*dT*dG*dA*dG*dA*dG*dC*dT*dG*dA*dG*dA*dG*dA)	53.9 % of control	35.7 % of control	≤ 0.05 µM				
ISIS 4759: phosphorothioate, human ELAM-1 5′-UTR 64-83, SEQ ID NO 53, ACAGGATCTCTCAGGTGGGT (antisense dA*dC*dA*dG*dG*dA*dT*dC*dT*dC*dT*dC*dA*dG*dG*dT*dG*dG*dG*dT)	30.0 % of control	20.2 % of control	≤ 0.05 µM				
ISIS 4764: phosphorothioate, human ELAM-1 5′-UTR 1-19, SEQ ID NO 52, GAAGTCAGCCAAGAACAGCT (antisense dG*dA*dA*dG*dT*dC*dA*dG*dC*dC*dA*dA*dG*dA*dA*dC*dA*dG*dC*dT)	70.2 % of control	50.2 % of control	≤ 0.05 µM				

— patent US6849612B2, “Oligonucleotide modulation of cell adhesion” (ISIS Pharmaceuticals, Inc., priority 1993, dated 2005)
